Experimental findings from patent US20250248998A1, “LRRK2 Inhibitors” (Brenig Therapeutics, Inc., priority 2022, published 2025) are described below.

For test [1], the target named is T1, LRRK2[G2019S] (Homo sapiens, UniProt Q5S007, G2019S). In words: Enzymatic activity inhibition against LRRK2[G2019S] (ADP-Glo kinase assay, LRRKtide substrate). It counts as biochemical. The arrangement: purchased SignalChem Biotech, Inc. L10-12GG-10. The conditions noted are these: recombinant LRRK2[G2019S] 36 nM, ATP, 1 h at rt, average Ki. The protocol:
Example A. Primary Assays Used to Determine Potency of the LRRK2 Inhibition
Assay for Determining Enzymatic Activity Inhibition Against LRRK2[G2019S].
Compound activity was determined using recombinant LRRK2[G2019S] protein (SignalChem Biotech, Inc., Cat #L10-12GG-10) and LRRKtide substrate (SignalChem Biotech, Inc., Cat #L10-58) in an in vitro enzymatic reaction. The enzymatic reaction was carried out in assay buffer (40 mM TRIS-HCl pH 7.4, 20 mM MgCl2, 0.05 mM DTT, 0.1 mg/mL BSA). The compounds were dispensed into a 384 well Diamond Well Plate (Axigen, Cat #P-384-120SQ-C-S) using the Biomek FX liquid handling system at the 80× solutions of compounds in DMSO. The 2× Protein-Substrate mix (final concentration 36 nM of LRRK2[G2019S] and 0.8 μg/μL of LRRKtide) was prepared in 1× Assay buffer and 4 μL of mixture per well was added into the 384-well white Reaction plate with NBS (Corning, Cat #CLS4513). The 4 μL of LRRKtide substrate w/o LRRK2[G2019S] in the 1× buffer was used for a negative control. Plates were centrifuged for 1 min at 200 g. Next the compounds were added to the reaction plate using Biomek station via following steps: 1 μL of 80× compounds (in DMSO) were mixed thoroughly with 39 μL of 2×10 μM ATP in Assay Buffer, then 4 μL of this mixture was added to Reaction plate with 4 μL of Protein-Substrate mix. Plates were centrifuged for 1 min at 200 g and incubated for 1 h at rt. Then, 4 μL per well of ADP-Glo reagent (Promega, ADP-Glo™ Kinase Assay, Cat #V9102) was added. Plates were incubated for 30 min at rt. Then, 8 μL per well of Kinase detection reagent (Promega, ADP-Glo™ Kinase Assay, Cat #V9102) was added and the luminescence signal was measured with a microplate reader. The luminescence signal was detected with CLARIOstar Plus (BMG LABTECH) microplate reader. The % inhibition was then used to calculate the Ki values. The average Ki values are shown in Table A, wherein “A” corresponds to Ki<5.0 nM, “B” corresponds to 5.0 nM≤Ki<10.0 nM, “C” 10.0 nM≤Ki<50.0 nM, “D” corresponds to 50.0 nM≤Ki<100.0 nM and “E” corresponds to Ki>100.0 nM.
Target sequence in this assay (Q5S007 970-2527 G2019S limits assumed): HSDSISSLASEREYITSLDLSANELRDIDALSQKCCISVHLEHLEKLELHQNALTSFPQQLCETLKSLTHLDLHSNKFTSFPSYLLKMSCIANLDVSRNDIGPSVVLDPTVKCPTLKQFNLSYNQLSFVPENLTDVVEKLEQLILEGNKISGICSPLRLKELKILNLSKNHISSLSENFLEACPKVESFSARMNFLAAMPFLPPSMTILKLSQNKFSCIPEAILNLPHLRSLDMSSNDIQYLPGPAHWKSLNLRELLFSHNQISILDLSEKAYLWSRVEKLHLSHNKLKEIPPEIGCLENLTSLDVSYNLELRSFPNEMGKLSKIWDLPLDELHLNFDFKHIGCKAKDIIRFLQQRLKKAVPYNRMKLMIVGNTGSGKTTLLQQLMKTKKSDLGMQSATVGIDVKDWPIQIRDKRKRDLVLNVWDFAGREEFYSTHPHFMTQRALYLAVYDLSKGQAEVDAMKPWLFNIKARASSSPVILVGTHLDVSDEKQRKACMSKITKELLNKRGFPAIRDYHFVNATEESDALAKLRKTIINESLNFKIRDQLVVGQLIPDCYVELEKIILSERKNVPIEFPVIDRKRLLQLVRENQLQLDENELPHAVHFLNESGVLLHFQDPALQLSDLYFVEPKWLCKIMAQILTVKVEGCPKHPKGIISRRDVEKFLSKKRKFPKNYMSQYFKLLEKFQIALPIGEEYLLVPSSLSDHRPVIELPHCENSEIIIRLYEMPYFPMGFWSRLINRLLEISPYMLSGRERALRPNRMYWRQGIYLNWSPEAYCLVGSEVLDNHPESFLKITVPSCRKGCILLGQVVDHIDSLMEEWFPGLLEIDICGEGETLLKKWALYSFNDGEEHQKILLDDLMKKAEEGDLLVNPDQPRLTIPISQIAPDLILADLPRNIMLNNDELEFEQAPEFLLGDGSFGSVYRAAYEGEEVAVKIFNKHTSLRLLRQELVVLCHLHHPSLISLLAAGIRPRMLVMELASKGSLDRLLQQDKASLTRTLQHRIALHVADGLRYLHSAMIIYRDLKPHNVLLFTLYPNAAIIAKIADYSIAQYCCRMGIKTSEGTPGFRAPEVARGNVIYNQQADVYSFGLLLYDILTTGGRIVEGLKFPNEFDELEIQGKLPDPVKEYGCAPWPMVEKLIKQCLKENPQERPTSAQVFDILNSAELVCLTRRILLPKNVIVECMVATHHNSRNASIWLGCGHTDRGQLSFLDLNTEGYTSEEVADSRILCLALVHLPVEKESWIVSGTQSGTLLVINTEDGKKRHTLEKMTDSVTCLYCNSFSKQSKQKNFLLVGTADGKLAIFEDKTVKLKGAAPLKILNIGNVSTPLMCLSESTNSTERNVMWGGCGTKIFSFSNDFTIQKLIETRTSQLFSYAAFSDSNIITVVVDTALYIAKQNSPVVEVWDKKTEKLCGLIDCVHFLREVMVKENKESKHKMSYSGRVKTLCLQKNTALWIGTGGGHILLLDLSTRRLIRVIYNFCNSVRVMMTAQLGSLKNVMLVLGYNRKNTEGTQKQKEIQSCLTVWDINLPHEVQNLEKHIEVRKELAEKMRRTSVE

Test [2] addresses T2, LRRK2 WT (Homo sapiens, UniProt Q5S007). Briefly: Enzymatic activity inhibition against LRRK2 WT (ADP-Glo kinase assay, LRRKtide substrate). It counts as biochemical. On the set-up: purchased SignalChem Biotech, Inc. L10-11G-10. The conditions noted are these: recombinant LRRK2 WT 36 nM, ATP, 1 h at rt, average Ki. The method, then:
Example B. Primary Assays Used to Determine Potency of the LRRK2 Inhibition
Assay for Determining Enzymatic Activity Inhibition Against LRRK2 WT.
Compound activity was determined using recombinant LRRK2 WT protein (SignalChem Biotech, Inc., Cat #L10-11G-10) and LRRKtide substrate (SignalChem Biotech, Inc., Cat #L10-58) in an in vitro enzymatic reaction. The enzymatic reaction was carried out in assay buffer (40 mM TRIS-HCl pH 7.4, 20 mM MgCl2, 0.05 mM DTT, 0.1 mg/mL BSA). The compounds were dispensed into a 384 well Diamond Well Plate (Axigen, Cat #P-384-120SQ-C-S) using the Biomek FX liquid handling system at 80× solutions of compounds in DMSO. The 2× Protein-Substrate mix (final concentration 36 nM of LRRK2 WT and 0.8 μg/μL of LRRKtide) was prepared in the 1× Assay buffer and 4 μL of mixture per well was added into the 384-well white Reaction plate with NBS (Corning, Cat #CLS4513). The 4 μL of LRRKtide substrate w/o LRRK2 WT in the 1× buffer was used for a negative control. Plates were centrifuged for 1 min at 200 g. Next the compounds were added to Reaction plate using Biomek station via following steps: 1 μL of 80× compounds (in DMSO) were mixed thoroughly with 39 μL of 2×10 μM ATP in Assay Buffer, then 4 μL of this mixture was added to Reaction plate with 4 μL of Protein-Substrate mix. Plates were centrifuged for 1 min at 200 g and incubated for 1 hour at rt. Then, 4 μL per well of ADP-Glo reagent (Promega, ADP-Glo™ Kinase Assay, Cat #V9102) was added. Plates were incubated for 30 minutes at rt. Then, 8 μL per well of Kinase detection reagent (Promega, ADP-Glo™ Kinase Assay, Cat #V9102) was added and the luminescence signal was measured with a microplate reader. The % inhibition was then used to calculate the Ki values. The average Ki values are shown in Table B, wherein “A” corresponds to Ki<10.0 nM, “B” corresponds to 10.0 nM K Ki<20.0 nM, “C” 20.0 nM K Ki<50.0 nM, “D” corresponds to 50.0 nM K Ki<100.0 nM and “E” corresponds to Ki>100.0 nM.
Background: ADP-Glo first removes unused ATP, then detects ADP through luciferase.
Target sequence in this assay (Q5S007 970-2527 limits assumed): as the sequence (Q5S007 970-2527 G2019S limits assumed) above, with S1050G counted along it

Test [3] concerns the target T2, LRRK2 WT. In words: Cell-based NanoBRET target engagement assay in HEK293 cells transfected with LRRK2 WT-NanoLuc fusion vector. The arrangement: expressed in transfected cells; host or cells: HEK293 (ATCC). As to conditions: compound treatment 1 h. The method, then:
(§1) Example C. Cell-Based NanoBRET Target Engagement Assay in 11EK293 Cells Transiently Transfected with LRRK2 WT- or LRRK2 (G2019S)-Nano Luc Fusion Vector
(§2) H1EK293 (ATCC) cells were transfected with […] LRRK2 WT or LRRK2 (G2019S) and 9 μg transfection carrier DNA. The transfected cells were treated with the compounds (starting at 1 μM, 10-dose with 3-fold dilution) and reference compounds CEP-701 or Staurosporine (starting at 1 μM, 10-dose with 3-fold dilution); compound treatment time: 1 h. LRRK2 WT and LRRK2 (G2019S) target engagement was measured by NanoBRET assay. Curve fits were performed only when % NanoBret signal at the highest concentration of compounds was less than […]. Assay format: 384-well format, 4000 cells/well. The IC50 values are shown in Table C, wherein “A” corresponds to IC50≤50.0 nM, “B” corresponds to 50.0 nM≤IC50<100.0 nM, “C” corresponds to 100.0 nM≤IC50.
A general note: In BRET a luciferase serves as donor, and the signal depends on an acceptor being close.
Target sequence in this assay (Q5S007 whole entry): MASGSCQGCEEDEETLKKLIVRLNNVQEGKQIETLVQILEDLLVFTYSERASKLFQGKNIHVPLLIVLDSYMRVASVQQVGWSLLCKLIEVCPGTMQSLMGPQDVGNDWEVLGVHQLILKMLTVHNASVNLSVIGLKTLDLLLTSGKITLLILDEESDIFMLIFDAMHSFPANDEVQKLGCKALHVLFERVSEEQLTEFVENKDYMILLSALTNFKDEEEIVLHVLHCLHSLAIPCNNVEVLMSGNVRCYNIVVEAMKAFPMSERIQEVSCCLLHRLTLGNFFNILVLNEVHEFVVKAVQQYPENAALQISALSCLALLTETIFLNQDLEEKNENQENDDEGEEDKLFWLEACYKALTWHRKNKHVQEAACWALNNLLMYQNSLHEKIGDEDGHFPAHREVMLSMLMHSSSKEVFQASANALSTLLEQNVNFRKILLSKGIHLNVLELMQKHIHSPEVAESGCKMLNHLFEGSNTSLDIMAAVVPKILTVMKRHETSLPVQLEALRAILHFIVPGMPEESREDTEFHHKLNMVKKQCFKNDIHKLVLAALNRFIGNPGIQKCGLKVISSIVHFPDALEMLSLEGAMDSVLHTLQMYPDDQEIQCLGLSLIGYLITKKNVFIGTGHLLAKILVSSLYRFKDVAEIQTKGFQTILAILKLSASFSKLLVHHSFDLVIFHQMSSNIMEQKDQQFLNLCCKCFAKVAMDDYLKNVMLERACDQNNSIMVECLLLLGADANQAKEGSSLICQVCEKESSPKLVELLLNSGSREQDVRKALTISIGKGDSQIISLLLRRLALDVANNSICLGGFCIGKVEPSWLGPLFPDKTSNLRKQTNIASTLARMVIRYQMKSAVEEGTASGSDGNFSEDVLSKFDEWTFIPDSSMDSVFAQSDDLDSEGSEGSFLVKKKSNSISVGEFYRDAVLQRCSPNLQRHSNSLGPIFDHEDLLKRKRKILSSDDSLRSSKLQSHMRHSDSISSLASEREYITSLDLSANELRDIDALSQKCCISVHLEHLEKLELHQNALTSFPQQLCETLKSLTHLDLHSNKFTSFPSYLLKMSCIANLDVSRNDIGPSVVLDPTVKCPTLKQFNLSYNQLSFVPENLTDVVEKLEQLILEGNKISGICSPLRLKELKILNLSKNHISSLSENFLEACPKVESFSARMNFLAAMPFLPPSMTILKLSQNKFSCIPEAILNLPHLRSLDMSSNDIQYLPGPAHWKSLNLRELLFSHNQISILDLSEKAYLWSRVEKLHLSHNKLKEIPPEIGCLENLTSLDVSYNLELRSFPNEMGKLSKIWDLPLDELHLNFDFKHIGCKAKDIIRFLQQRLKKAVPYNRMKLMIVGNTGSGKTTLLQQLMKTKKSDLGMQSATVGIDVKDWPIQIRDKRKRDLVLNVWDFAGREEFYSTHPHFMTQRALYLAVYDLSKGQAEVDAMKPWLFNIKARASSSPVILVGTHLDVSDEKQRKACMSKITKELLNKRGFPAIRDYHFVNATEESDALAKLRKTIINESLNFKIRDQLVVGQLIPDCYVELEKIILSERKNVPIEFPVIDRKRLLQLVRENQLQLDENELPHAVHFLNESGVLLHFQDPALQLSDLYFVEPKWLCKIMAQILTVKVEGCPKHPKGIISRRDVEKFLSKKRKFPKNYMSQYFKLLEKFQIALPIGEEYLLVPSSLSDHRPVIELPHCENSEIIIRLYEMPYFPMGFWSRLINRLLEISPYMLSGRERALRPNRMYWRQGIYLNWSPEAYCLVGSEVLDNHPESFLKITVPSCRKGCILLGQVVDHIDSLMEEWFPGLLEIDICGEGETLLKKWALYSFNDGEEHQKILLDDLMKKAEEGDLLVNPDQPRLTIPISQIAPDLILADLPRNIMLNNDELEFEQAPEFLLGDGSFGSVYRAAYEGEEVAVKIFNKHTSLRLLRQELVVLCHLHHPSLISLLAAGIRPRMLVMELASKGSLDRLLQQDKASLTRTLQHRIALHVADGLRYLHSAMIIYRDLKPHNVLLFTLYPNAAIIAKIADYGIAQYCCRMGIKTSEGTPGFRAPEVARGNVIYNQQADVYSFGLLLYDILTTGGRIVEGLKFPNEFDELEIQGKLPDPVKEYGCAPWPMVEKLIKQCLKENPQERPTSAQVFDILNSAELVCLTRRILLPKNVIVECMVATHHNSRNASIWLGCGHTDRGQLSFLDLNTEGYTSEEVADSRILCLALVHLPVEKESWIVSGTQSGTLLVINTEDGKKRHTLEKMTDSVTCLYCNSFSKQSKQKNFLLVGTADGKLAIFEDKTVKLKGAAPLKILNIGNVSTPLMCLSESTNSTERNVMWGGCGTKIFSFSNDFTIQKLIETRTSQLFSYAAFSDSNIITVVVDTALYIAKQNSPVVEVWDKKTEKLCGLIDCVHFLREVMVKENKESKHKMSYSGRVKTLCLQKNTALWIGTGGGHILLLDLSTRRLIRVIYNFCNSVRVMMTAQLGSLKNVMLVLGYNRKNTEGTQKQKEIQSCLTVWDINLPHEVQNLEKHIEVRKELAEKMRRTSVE

Test [4] concerns the target T1, LRRK2[G2019S]. Briefly: Cell-based NanoBRET target engagement assay in HEK293 cells transfected with LRRK2 (G2019S)-NanoLuc fusion vector. On the set-up: expressed in transfected cells; host or cells: HEK293 (ATCC). As to conditions: compound treatment 1 h. The protocol:
as §1, §2
Target sequence in this assay (Q5S007 whole entry G2019S): as the sequence (Q5S007 whole entry) above, with G2019S counted along it

With `O=S1(=O)CCCC1c1ccc2cnn(-c3cnnc(N4CCCC4)c3)c2c1` (centres unmarked) [Compound 34, 2-[1-(6-pyrrolidin-1-ylpyridazin-4-yl)indazol-6-yl]thiolane 1,1-dioxide], the Ki in test [1] and in test [2] was above 100 nM in each case.

Regarding `Cn1nc(-c2n[nH]c3ccc(OC(F)F)cc23)cc(N2CCOCC2)c1=O` [Compound 32, 6-[5-(difluoromethoxy)-1H-indazol-3-yl]-2-methyl-4-morpholino-pyridazin-3-one], the Ki in test [1] was 50 to 100 nM; in test [2] it was above 100 nM.

For the compound `Cn1nc(-c2n[nH]c3ccc(OC(F)(F)F)cc23)cc(N2CCOCC2)c1=O` [Compound 22, 2-methyl-4-morpholino-6-[5-(trifluoromethoxy)-1H-indazol-3-yl]pyridazin-3-one], the Ki in test [1] and in test [2] was above 100 nM in each case.

For `Cc1nnc(-c2n[nH]c3ccc(OC(C)C)cc23)cc1N1CCOCC1` [Compound 10, 4-[6-(5-isopropoxy-1H-indazol-3-yl)-3-methyl-pyridazin-4-yl]morpholine], the Ki was 10 to 50 nM in test [1] and at most 10 nM in test [2].

Regarding `Cn1nc(-n2ncc3ccc(C4(C#N)CC4)cc32)cc(N2CCOCC2)c1=O` [Compound 41, 1-[1-(1-methyl-5-morpholino-6-oxo-pyridazin-3-yl)indazol-6-yl]cyclopropanecarbonitrile], the Ki in test [1] was 50 to 100 nM; in test [2], at most 10 nM.

Consider `CC(C)Oc1ccc2[nH]nc(-c3cnnc(N4CCCC4)c3)c2c1` [Compound 5, 5-isopropoxy-3-(6-pyrrolidin-1-ylpyridazin-4-yl)-1H-indazole], for which the Ki in test [1] is at most 5 nM; in test [2], 10 to 20 nM.

Regarding `N#CC1(c2ccc3cnn(-c4cnnc(N5CCCC5)c4)c3c2)CCCC1` [Compound 39, 1-[1-(6-pyrrolidin-1-ylpyridazin-4-yl)indazol-6-yl]cyclopentanecarbonitrile], the results for the Ki in test [1] and in test [2] were 50 to 100 nM and 20 to 50 nM, respectively.

In the case of `Cn1nc(-c2n[nH]c3ccc4c(c23)CCCO4)cc(N2CCOCC2)c1=O` [Compound 29, 2-methyl-4-morpholino-6-(3,7,8,9-tetrahydropyrano[3,2-e]indazol-1-yl)pyridazin-3-one], the Ki was above 100 nM in test [1] and 50 to 100 nM in test [2].

In the case of `N#CC1(c2ccc3cnn(-c4cnnc(N5CCCC5)c4)c3c2)CC1` [Compound 36, 1-[1-(6-pyrrolidin-1-ylpyridazin-4-yl)indazol-6-yl]cyclopropanecarbonitrile], the Ki in test [1] is above 100 nM; in test [2] it was 50 to 100 nM.

With `CC(C)(C#N)c1ccc2cnn(-c3cnnc(N4CCCC4)c3)c2c1` [Compound 35, 2-methyl-2-[1-(6-pyrrolidin-1-ylpyridazin-4-yl)indazol-6-yl]propanenitrile], the Ki in test [1] lay in the range of 50 to 100 nM; in test [2], 20 to 50 nM.

For the compound `CC(C)Oc1cccc2[nH]nc(-c3cc(N4CCOCC4)c(=O)n(C)n3)c12` [Compound 15, 6-(4-isopropoxy-1H-indazol-3-yl)-2-methyl-4-morpholino-pyridazin-3-one], the Ki in test [1] and in test [2] was above 100 nM throughout.

For the compound `Cn1nc(-c2n[nH]c3ccc(S(C)(=O)=O)cc23)cc(N2CCOCC2)c1=O` [Compound 33, 2-methyl-6-(5-methylsulfonyl-1H-indazol-3-yl)-4-morpholino-pyridazin-3-one], the Ki in test [1] is above 100 nM; in test [2] it was 50 to 100 nM.

For the compound `Cc1c(OC(C)C)ccc2[nH]nc(-c3cc(N4CCOCC4)c(=O)n(C)n3)c12` [Compound 24, 6-(5-isopropoxy-4-methyl-1H-indazol-3-yl)-2-methyl-4-morpholino-pyridazin-3-one], the Ki in test [1] and in test [2] was above 100 nM throughout.

`Cn1nc(-c2n[nH]c3cc4c(cc23)OCCC4)cc(N2CCOCC2)c1=O` [Compound 31, 2-methyl-4-morpholino-6-(1,6,7,8-tetrahydropyrano[2,3-f]indazol-3-yl)pyridazin-3-one]: the Ki was above 100 nM in test [1] and 50 to 100 nM in test [2].

For the compound `Cn1nc(-c2n[nH]c3ccc(-n4cccc4C#N)cc23)cc(N2CCOCC2)c1=O` [Compound 45, 1-[3-(1-methyl-5-morpholino-6-oxo-pyridazin-3-yl)-1H-indazol-5-yl]pyrrole-2-carbonitrile], the Ki in test [1] was 10 to 50 nM; in test [2], at most 10 nM.

`N#CC1(c2ccc3cnn(-c4cnnc(N5CCCC5)c4)c3c2)CCCCC1` [Compound 37, 1-[1-(6-pyrrolidin-1-ylpyridazin-4-yl)indazol-6-yl]cyclohexanecarbonitrile]: the Ki in test [1] and in test [2] was above 100 nM in each case.

`CC(C)Oc1ccc2[nH]nc(-c3cnnc(N4CCOCC4)n3)c2c1` [Compound 13, 4-[5-(5-isopropoxy-1H-indazol-3-yl)-1,2,4-triazin-3-yl]morpholine]: the Ki in test [1] was 5 to 10 nM; in test [2], at most 10 nM.

`CC1CCN(c2cc(-c3n[nH]c4ccc(OC5(C)CC5)cc34)nn(C)c2=O)CCC1O` (centres unmarked) [Compound 78, 4-(4-hydroxy-5-methyl-azepan-1-yl)-2-methyl-6-[5-(1-methylcyclopropoxy)-1H-indazol-3-yl]pyridazin-3-one]: the IC50 in test [3] and in test [4] was at most 50 nM each time.

With `CC1(Oc2ccc3[nH]nc(-c4cc(N5CC(C)(C)C6COCC65)c(=O)n(C5CC5)n4)c3c2)CC1` (centres unmarked) [Compound 49, 2-cyclopropyl-4-(3,3-dimethyl-3a,4,6,6a-tetrahydro-2H-furo[3,4-b]pyrrol-1-yl)-6-[5-(1-methylcyclopropoxy)-1H-indazol-3-yl]pyridazin-3-one], the IC50 in test [3] and in test [4] was at most 50 nM throughout.

What is called Ki is a dissociation constant, usually derived from enzyme kinetics or from competition with a known ligand. The term IC50 denotes the concentration needed to halve the response being measured.
